Data taken from publication PMC7021728, “Structure of the agonist 12–HHT in its BLT2 receptor-bound state” (Scientific Reports, 2020).
Changes are numbered by the printed parent chain. Where two headings read alike, the source gives them in different places.

How the values were obtained:
[1] = target: T1, BLT2 P175^ECL2A (Homo sapiens, UniProt Q9NPC1, P175A); test: Gi protein activation catalyzed by BLT2 mutant; type: biochemical
T1 construct: made in house
T1 sequence (Q9NPC1 1-358 P175A): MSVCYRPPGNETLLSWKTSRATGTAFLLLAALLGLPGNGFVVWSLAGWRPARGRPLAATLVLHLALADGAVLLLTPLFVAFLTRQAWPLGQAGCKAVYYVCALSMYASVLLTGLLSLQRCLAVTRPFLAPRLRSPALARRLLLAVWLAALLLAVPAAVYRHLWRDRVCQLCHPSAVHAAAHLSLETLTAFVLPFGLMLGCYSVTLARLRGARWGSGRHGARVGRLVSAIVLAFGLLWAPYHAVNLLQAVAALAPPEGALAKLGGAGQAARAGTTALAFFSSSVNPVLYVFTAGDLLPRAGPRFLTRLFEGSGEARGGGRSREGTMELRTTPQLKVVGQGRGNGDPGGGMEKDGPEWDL
Method: (§1) All mutations were introduced in the wild-type BLT2 receptor by PCR-mediated mutagenesis using the QuickChange multisite-directed mutagenesis kit (Stratagene) and the wild-type BLT2 construct as a template. Mutations were confirmed by nucleotide sequencing. […] Gαi2 and Gβ1γ2 were prepared as previously described. […] The data were normalized to the fluorescence maximum obtained in the presence of saturating concentrations in 12–HHT (10 μM).

[2] = target: T2, BLT2 Q267^7.32A (Homo sapiens, UniProt Q9NPC1, Q267A); test: Gi protein activation catalyzed by BLT2 mutant; type: biochemical
T2 construct: made in house
T2 sequence (Q9NPC1 1-358 Q267A): T1 sequence (Q9NPC1 1-358 P175A) with A175P, Q267A
Method: as §1

[3] = target: T3, BLT2 R166^ECL2A (Homo sapiens, UniProt Q9NPC1, R166A); test: Gi protein activation catalyzed by BLT2 mutant; type: biochemical
T3 construct: made in house
T3 sequence (Q9NPC1 1-358 R166A): T1 sequence (Q9NPC1 1-358 P175A) with R166A, A175P
Method: as §1

[4] = target: T4, BLT2 R270^7.35A (Homo sapiens, UniProt Q9NPC1, R270A); test: Gi protein activation catalyzed by BLT2 mutant; type: biochemical; settings: construct R270^7.35A
T4 construct: made in house
T4 sequence (Q9NPC1 1-358 R270A): T1 sequence (Q9NPC1 1-358 P175A) with A175P, R270A
Method: (§2) All mutations were introduced in the wild-type BLT2 receptor by PCR-mediated mutagenesis using the QuickChange multisite-directed mutagenesis kit (Stratagene) and the wild-type BLT2 construct as a template. Mutations were confirmed by nucleotide sequencing.
(§3) Gαi2 and Gβ1γ2 were prepared as previously described. Briefly, agonist-dependent functional coupling of the purified receptor to Gαi2β1γ2 was assessed through the rate of GTPγS binding at increasing agonist concentrations determined by monitoring the relative increase in the intrinsic fluorescence ( λexcitation=300nm , λemission=345nm ) of Gαi2 (200 nM of purified G protein) in the presence of BLT2 (20 nM) in buffer containing 10 mM MOPS, pH 7.2, 130 mM NaCl, and 2 mM MgCl2 at 15 °C after the addition of 10 μM GTPγS. The data were normalized to the fluorescence maximum obtained in the presence of saturating concentrations in 12–HHT (10 μM).

[5] = target: T5, BLT2 S174^ECL2A (Homo sapiens, UniProt Q9NPC1, S174A); test: Gi protein activation catalyzed by BLT2 mutant; type: biochemical
T5 construct: made in house
T5 sequence (Q9NPC1 1-358 S174A): T1 sequence (Q9NPC1 1-358 P175A) with S174A, A175P
Method: as §2, §3

[6] = tested on: BLT1; parameters: method as in PMID 18378794; settings: in words; cited from earlier work
[7] = tested on: BLT2; parameters: method as in PMID 18378794; settings: membrane fractions of CHO transfected by BLT2; cited from earlier work
[8] = tested on: BLT2; parameters: method as in PMID 18378794; settings: cited from earlier work

CCCCC[C@H](O)/C=C/C=C/C/C=C\CCCC(=O)O [12–HHT, 12S–hydroxyheptadeca-5Z,8E,10E-trienoic acid]
effect of the mutation on ligand binding ([1]; P175^ECL2 to alanine compared to wild-type, in words): do not display a significant impact on ligand binding
EC50 ([1]; construct P175^ECL2A): 0.0389 µM
effect of the mutation on ligand binding ([2]; Q267^7.32A compared to wild-type, in words): no significant change in ligand binding
EC50 ([2]; construct Q267^7.32A): 0.0331 µM
effect of the mutation on ligand binding ([3]; R166^ECL2 mutation compared to wild-type, in words): do not impact receptor ligand properties
EC50 ([3]; construct R166^ECL2A): 0.0207 µM
EC50 [4]: 0.235 µM
EC50 ([5]; S174^ECL2A, read-out: EC50): 0.295 µM
EC50 ([5]; construct S174^ECL2A, given as LogEC50 (negative sign), read-out: LogEC50 (converted)): 0.289 µM
EC50 ([5]; construct S174^ECL2A, read-out: EC50): 0.295 µM
binding to BLT1 [6]: does not bind
half maximal effective concentration (EC50) compared to LTB4 [7]: about one order of magnitude lower than LTB4
affinity for BLT2 compared to LTB4 ([8]; in cellulo measurements): about one order of magnitude
half maximal inhibitory concentration (IC50) compared to LTB4 ([8]; membrane fractions of CHO transfected by BLT2): about one order of magnitude lower than LTB4
